Data from the kinase profiling compilation of Christmann-Franck et al. (2016).
Where “and” joins values, the source holds several entries; their conditions need not be identical. Equal entries are not always repeated.

Key:
Test in all cases: radiometric filter-binding kinase assay, Kinase HotSpot
Conditions in all cases: compound 0.5 µM; ATP 10 µM
[1] = target: PAK3 (human) (UniProt O75914)
[2] = target: MAP3K10 (human) (UniProt Q02779)
[3] = target: ACVR1 (human) (UniProt Q04771)
[4] = target: AKT3 (human) (UniProt Q9Y243)
[5] = target: TEC (human) (UniProt P42680)
[6] = target: CLK2 (human) (UniProt P49760)
[7] = target: ERBB2 (human) (UniProt P04626)
[8] = target: TGFBR1 (human) (UniProt P36897)
[9] = target: NEK6 (human) (UniProt Q9HC98)
[10] = target: CLK1 (human) (UniProt P49759)
[11] = target: PAK4 (human) (UniProt O96013)
[12] = target: JAK2 JH1 JH2 (human) (UniProt O60674)
[13] = target: ULK1 (human) (UniProt O75385)
[14] = target: MAP4K5 (human) (UniProt Q9Y4K4)
[15] = target: NEK2 (human) (UniProt P51955)
[16] = target: RET (human) (UniProt P07949)
[17] = target: LIMK1 (human) (UniProt P53667)
[18] = target: RPS6KA5 KD2 (human) (UniProt O75582)
[19] = target: PRKG1 (human) (UniProt Q13976)
[20] = target: PHKG1 (human) (UniProt Q16816)
[21] = target: CSNK1G1 (human) (UniProt Q9HCP0)
[22] = target: RPS6KA6 KD1 KD2 (human) (UniProt Q9UK32)
[23] = target: TAOK1 (human) (UniProt Q7L7X3)
[24] = target: CLK3 (human) (UniProt P49761)
[25] = target: NTRK3 (human) (UniProt Q16288)
[26] = target: ULK2 (human) (UniProt Q8IYT8)
[27] = target: CHUK (human) (UniProt O15111)
[28] = target: LYN (human) (UniProt P07948)
[29] = target: MAPK8 (human) (UniProt P45983)
[30] = target: MAP3K5 (human) (UniProt Q99683)
[31] = target: JAK1 JH1 catalytic (human) (UniProt P23458)
[32] = target: HCK (human) (UniProt P08631)
[33] = target: PLK3 (human) (UniProt Q9H4B4)
[34] = target: INSRR (human) (UniProt P14616)
[35] = target: PTK2B (human) (UniProt Q14289)
[36] = target: MLTK (human) (UniProt Q9NYL2)
[37] = target: DYRK2 (human) (UniProt Q92630)
[38] = target: EPHB4 (human) (UniProt P54760)
[39] = target: VRK1 (human) (UniProt Q99986)
[40] = target: MARK3 (human) (UniProt P27448)
[41] = target: EPHB1 (human) (UniProt P54762)
[42] = target: CDK3 CCNE1 (human) (UniProt Q00526+P24864)

RET (human), sequence (P07949 whole entry, looked up): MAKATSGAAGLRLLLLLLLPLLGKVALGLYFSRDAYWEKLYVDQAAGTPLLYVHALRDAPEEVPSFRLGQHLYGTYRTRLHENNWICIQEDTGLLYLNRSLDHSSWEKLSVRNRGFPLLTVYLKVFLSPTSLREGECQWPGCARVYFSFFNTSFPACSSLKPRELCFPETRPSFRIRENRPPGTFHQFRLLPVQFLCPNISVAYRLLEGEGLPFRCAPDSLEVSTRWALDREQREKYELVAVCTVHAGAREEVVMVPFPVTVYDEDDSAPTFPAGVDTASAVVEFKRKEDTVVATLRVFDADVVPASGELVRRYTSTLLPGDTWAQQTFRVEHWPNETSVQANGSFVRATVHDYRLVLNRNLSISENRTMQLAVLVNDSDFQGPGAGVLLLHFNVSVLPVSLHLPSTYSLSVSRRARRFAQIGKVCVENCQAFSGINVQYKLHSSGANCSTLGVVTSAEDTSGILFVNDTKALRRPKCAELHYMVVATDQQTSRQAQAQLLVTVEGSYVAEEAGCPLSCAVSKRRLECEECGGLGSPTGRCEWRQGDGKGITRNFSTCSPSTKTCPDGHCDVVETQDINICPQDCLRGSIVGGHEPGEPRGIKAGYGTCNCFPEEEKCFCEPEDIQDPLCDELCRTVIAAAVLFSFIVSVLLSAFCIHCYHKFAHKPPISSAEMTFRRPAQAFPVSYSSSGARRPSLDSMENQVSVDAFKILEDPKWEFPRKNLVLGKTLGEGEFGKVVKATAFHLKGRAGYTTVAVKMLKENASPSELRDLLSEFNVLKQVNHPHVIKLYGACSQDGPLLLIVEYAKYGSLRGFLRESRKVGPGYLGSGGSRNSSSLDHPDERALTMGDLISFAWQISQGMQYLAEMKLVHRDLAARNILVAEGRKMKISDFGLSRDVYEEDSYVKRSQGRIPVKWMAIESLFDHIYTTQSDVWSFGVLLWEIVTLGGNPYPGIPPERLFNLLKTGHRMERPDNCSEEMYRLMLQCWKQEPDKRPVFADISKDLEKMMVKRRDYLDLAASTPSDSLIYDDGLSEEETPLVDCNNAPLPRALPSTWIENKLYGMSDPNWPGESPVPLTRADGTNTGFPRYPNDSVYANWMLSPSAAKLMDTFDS
TGFBR1 (human), sequence (P36897 whole entry, looked up): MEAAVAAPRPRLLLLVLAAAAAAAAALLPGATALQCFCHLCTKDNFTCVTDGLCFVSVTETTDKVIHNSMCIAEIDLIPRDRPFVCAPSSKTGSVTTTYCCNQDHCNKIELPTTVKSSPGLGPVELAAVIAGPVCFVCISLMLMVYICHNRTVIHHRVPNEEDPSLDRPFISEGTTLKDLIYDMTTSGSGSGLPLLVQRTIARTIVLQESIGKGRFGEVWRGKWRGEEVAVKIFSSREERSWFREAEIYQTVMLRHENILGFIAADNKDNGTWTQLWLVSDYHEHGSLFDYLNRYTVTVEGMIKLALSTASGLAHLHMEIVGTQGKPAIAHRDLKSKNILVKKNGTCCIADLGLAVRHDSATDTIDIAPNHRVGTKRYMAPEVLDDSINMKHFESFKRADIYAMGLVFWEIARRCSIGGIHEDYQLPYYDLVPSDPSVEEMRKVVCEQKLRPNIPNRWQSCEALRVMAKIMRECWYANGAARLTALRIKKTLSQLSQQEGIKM
ULK1 (human), sequence (O75385 whole entry, looked up): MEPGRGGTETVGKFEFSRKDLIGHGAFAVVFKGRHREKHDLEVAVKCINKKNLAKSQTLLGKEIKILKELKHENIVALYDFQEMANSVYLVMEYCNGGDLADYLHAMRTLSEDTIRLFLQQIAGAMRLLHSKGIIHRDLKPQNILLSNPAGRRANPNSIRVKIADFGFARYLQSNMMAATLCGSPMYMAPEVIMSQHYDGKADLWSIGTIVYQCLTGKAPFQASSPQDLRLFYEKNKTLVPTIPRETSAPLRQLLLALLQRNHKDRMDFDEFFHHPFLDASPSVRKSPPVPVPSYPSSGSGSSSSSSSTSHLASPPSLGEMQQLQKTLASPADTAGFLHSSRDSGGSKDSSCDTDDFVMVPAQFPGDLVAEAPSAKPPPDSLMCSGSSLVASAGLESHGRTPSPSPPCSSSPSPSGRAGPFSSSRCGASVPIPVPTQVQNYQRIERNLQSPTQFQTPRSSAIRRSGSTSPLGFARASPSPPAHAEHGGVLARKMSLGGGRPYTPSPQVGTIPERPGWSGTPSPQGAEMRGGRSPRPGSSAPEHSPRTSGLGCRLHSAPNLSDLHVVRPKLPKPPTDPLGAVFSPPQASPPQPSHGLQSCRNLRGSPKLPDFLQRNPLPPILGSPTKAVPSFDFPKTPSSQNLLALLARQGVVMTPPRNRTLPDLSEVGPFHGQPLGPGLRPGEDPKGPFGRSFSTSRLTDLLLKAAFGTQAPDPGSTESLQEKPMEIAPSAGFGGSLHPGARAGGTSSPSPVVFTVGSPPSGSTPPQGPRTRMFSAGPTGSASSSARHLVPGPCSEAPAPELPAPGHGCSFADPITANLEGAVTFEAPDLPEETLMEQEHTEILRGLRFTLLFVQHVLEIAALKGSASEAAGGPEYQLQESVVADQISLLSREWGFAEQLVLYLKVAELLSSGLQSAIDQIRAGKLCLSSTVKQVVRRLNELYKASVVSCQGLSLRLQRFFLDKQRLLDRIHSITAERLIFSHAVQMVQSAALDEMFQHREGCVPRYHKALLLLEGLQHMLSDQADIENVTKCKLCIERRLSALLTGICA
ERBB2 (human), sequence (P04626 whole entry, looked up): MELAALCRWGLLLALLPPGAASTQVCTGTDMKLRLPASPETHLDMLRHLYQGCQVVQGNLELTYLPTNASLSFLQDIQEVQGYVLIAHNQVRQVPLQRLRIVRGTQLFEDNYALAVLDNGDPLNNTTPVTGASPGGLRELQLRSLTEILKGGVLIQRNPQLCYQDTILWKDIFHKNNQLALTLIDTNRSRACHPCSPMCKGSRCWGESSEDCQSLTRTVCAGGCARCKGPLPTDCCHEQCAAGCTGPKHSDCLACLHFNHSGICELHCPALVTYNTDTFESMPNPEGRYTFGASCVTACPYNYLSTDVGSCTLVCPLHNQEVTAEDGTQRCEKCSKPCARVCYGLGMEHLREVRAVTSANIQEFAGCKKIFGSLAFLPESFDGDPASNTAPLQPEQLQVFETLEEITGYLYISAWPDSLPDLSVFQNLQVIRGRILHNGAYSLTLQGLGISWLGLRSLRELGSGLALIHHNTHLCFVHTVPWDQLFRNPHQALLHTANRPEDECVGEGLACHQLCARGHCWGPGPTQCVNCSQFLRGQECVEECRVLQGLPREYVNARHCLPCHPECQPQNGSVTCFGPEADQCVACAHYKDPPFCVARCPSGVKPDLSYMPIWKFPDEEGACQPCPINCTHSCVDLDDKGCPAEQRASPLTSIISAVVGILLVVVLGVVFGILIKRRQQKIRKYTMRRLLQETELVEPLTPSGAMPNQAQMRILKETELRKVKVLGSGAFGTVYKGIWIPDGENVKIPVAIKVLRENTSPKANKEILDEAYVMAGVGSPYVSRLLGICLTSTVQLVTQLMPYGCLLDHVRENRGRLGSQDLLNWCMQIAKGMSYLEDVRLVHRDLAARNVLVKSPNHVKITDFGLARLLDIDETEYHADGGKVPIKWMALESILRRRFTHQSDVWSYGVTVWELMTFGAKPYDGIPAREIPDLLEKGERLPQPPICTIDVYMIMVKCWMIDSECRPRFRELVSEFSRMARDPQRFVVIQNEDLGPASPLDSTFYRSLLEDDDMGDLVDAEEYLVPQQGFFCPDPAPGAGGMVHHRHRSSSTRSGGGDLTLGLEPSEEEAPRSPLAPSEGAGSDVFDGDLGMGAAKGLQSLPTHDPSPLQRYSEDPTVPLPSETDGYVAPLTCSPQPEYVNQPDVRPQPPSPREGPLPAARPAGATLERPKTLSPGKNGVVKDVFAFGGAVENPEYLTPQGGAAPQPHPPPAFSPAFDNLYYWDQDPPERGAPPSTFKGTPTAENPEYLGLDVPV
JAK1 JH1 catalytic (human), sequence (P23458 whole entry, looked up): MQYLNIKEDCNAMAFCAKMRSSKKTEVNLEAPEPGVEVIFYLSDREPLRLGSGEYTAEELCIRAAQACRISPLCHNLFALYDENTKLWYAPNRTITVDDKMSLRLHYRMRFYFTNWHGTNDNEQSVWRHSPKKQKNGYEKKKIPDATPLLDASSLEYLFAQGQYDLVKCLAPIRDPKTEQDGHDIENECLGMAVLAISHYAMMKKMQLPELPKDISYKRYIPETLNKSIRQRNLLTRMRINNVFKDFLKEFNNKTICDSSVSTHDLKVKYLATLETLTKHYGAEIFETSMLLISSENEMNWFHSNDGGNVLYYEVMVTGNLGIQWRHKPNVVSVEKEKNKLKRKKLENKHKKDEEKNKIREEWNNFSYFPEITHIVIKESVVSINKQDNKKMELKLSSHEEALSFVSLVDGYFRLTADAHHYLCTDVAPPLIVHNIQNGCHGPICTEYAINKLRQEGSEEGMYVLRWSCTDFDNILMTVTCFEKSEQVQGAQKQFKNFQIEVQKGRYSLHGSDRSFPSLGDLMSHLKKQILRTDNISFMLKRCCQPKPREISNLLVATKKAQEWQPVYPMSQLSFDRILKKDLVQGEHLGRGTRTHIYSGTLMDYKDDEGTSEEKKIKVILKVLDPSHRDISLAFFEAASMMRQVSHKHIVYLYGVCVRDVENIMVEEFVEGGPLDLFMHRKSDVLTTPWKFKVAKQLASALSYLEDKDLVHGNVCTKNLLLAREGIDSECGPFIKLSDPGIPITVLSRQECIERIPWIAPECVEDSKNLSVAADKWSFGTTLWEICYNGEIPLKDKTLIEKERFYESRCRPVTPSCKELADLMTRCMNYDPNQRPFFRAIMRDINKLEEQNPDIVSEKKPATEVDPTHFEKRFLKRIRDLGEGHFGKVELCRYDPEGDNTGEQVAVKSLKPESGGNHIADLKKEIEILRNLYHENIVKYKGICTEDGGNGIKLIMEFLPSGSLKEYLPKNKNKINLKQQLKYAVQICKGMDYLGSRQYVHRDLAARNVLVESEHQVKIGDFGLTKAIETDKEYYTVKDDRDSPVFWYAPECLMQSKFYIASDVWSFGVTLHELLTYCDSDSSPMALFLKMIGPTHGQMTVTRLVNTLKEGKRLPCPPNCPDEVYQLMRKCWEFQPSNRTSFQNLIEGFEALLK

For COc1ccc(-c2cnc3c(-c4ccsc4)cnn3c2)cc1, the residual activity [1] was 96.4%, the residual activity [2] was 94.2% and the residual activity [3] was 91.1%. It also gave a residual activity [4] of 95.4%, a residual activity [5] of 124% and a residual activity [6] of 83.8%. For the same compound, the residual activity [7] was 102%, the residual activity [8] was 98% and the residual activity [9] was 99.3%. For the same compound, the residual activity [10] was 82.8%, the residual activity [11] was 72.5% and the residual activity [12] was 98.4%. It also gave a residual activity [13] of 79%, a residual activity [14] of 60.3% and a residual activity [15] of 90.2%. For the same compound, the residual activity [16] was 92%, the residual activity [17] was 71.2% and the residual activity [18] was 90.3%. For the same compound, the residual activity [19] was 86.5% and 89.1%, the residual activity [20] was 73.2% and the residual activity [21] was 90.3%. It also gave a residual activity [22] of 90.7%, a residual activity [23] of 105% and a residual activity [24] of 100%. The residual activity [25] was 49.8%, the residual activity [26] was 103% and the residual activity [27] was 94.5%. The residual activity [28] was 81.8% and 92.7%, the residual activity [29] was 100% and the residual activity [30] was 105%. It also gave a residual activity [31] of 87%, a residual activity [32] of 81.9% and a residual activity [33] of 98%. The residual activity [34] was 98.7%, the residual activity [35] was 81.8% and the residual activity [36] was 84.1%. It also gave a residual activity [37] of 71.1%, a residual activity [38] of 87.5% and a residual activity [39] of 105%. The residual activity [40] was 88.8%, the residual activity [41] was 83.1% and the residual activity [42] was 84.9%.

Work on NC(=O)c1ccc(N(C(N)=O)c2c(F)cccc2F)nc1-c1ccc(F)cc1F yielded a residual activity [1] of 98.3%, a residual activity [2] of 104% and a residual activity [3] of 105%. It also gave a residual activity [4] of 86.2%, a residual activity [5] of 114% and a residual activity [6] of 86.9%. For the same compound, the residual activity [7] was 106%, the residual activity [8] was 96.7% and the residual activity [9] was 90.5%. It also gave a residual activity [10] of 108%, a residual activity [11] of 92.6% and a residual activity [12] of 107%. The residual activity [13] was 104%, the residual activity [14] was 98.3% and the residual activity [15] was 109%. For the same compound, the residual activity [16] was 93.1%, the residual activity [17] was 98.5% and the residual activity [18] was 92.8%. The residual activity [19] was 88.1% and 95.7%, the residual activity [20] was 92% and the residual activity [21] was 102%. For the same compound, the residual activity [22] was 101%, the residual activity [23] was 96.2% and the residual activity [24] was 112%. It also gave a residual activity [25] of 95.9%, a residual activity [26] of 101% and a residual activity [27] of 100%. The residual activity [28] was 106% and 98.1%, the residual activity [29] was 100% and the residual activity [30] was 102%. For the same compound, the residual activity [31] was 98.8%, the residual activity [32] was 89.5% and the residual activity [33] was 94.7%. The residual activity [34] was 102%, the residual activity [35] was 102% and the residual activity [36] was 97.9%. It also gave a residual activity [37] of 102%, a residual activity [38] of 83.9% and a residual activity [39] of 104%. For the same compound, the residual activity [40] was 98.1%, the residual activity [41] was 100% and the residual activity [42] was 94.7%.

With O=c1cc(-c2cccc3c2Sc2ccccc2S3)oc(N2CCOCC2)c1 the residual activity [1] was 95%, the residual activity [2] was 95.9% and the residual activity [3] was 97.5%. It also gave a residual activity [4] of 109%, a residual activity [5] of 198% and a residual activity [6] of 84.7%. For the same compound, the residual activity [7] was 97.3%, the residual activity [8] was 98% and the residual activity [9] was 103%. For the same compound, the residual activity [10] was 103%, the residual activity [11] was 116% and the residual activity [12] was 105%. It also gave a residual activity [13] of 91.9%, a residual activity [14] of 93.6% and a residual activity [15] of 103%. For the same compound, the residual activity [16] was 82.4%, the residual activity [17] was 103% and the residual activity [18] was 117%. The residual activity [19] was 102% and 103%, the residual activity [20] was 106% and the residual activity [21] was 99.3%. For the same compound, the residual activity [22] was 98.2%, the residual activity [23] was 107% and the residual activity [24] was 121%. The residual activity [25] was 99.7%, the residual activity [26] was 123% and the residual activity [27] was 87.4%. The residual activity [28] was 106% and 116%, the residual activity [29] was 84% and the residual activity [30] was 104%. It also gave a residual activity [31] of 105%, a residual activity [32] of 102% and a residual activity [33] of 98.1%. The residual activity [34] was 98.7%, the residual activity [35] was 106% and the residual activity [36] was 100%. It also gave a residual activity [37] of 104%, a residual activity [38] of 94.3% and a residual activity [39] of 90.7%. For the same compound, the residual activity [40] was 106%, the residual activity [41] was 110% and the residual activity [42] was 101%.
